Results as given in patent US20250066286A1, “COMPOSITIONS OF (Z)-ENDOXIFEN AND METHODS OF ENRICHMENT THEREOF” (Atossa Therapeutics, Inc., priority 2022, published 2025).

Assay: Stability of (Z)-Endoxifen in acetone (HPLC peak table over time)
Type: physicochemical
Settings: for E-form, RT 14.58, RRT 0.96 / HPLC peak RT 13.84, RRT 0.91 / HPLC peak RT 20.32, RRT 1.34 / HPLC peak RT 20.51, RRT 1.35 / HPLC peak RT 21.68, RRT 1.43 / HPLC peak RT 22.88, RRT 1.51 / HPLC peak RT 27.15, RRT 1.79 / HPLC peak RT 27.21, RRT 1.80 / HPLC peak RT 27.45, RRT 1.81 / HPLC peak RT 27.88, RRT 1.84 / HPLC peak RT 4.37, RRT 0.28 / Z-form, RT 15.13, RRT 1.00: acetone at reflux (56° C.); for HPLC peak RT 4.37, RRT 0.28 / Z-form, RT 15.13, RRT 1.00 / Z-form, RT 16.25, RRT 1.00: in % (unit assumed); for E-form, RT 15.40, RRT 0.95 / HPLC peak RT 3.14, RRT 0.19 / HPLC peak RT 4.25, RRT 0.26 / HPLC peak RT 14.68, RRT 0.90 / HPLC peak RT 17.69, RRT 1.09 / HPLC peak RT 20.47, RRT 1.26 / HPLC peak RT 20.80, RRT 1.28 / HPLC peak RT 21.56, RRT 1.33 / HPLC peak RT 21.83, RRT 1.34 / HPLC peak RT 22.68, RRT 1.39 / HPLC peak RT 22.76, RRT 1.40 / Z-form, RT 16.25, RRT 1.00: acetone, 40° C.

- E-form, RT 14.58, RRT 0.96 (3 hr): 0.54%
- HPLC peak RT 13.84, RRT 0.91 (3 hr): 0.05%
- HPLC peak RT 20.32, RRT 1.34 (3 hr): 0.37%
- HPLC peak RT 20.51, RRT 1.35 (3 hr): 0.06%
- HPLC peak RT 21.68, RRT 1.43 (3 hr): 0.16%
- HPLC peak RT 22.88, RRT 1.51 (3 hr): 0.13%
- HPLC peak RT 27.15, RRT 1.79 (3 hr): 0.03%
- HPLC peak RT 27.21, RRT 1.80 (3 hr): 0.05%
- HPLC peak RT 27.45, RRT 1.81 (3 hr): 0.24%
- HPLC peak RT 27.88, RRT 1.84 (3 hr): 0.04%
- HPLC peak RT 4.37, RRT 0.28 (3 hr): 0.96
- Z-form, RT 15.13, RRT 1.00 (3 hr): 96.67
- E-form, RT 14.58, RRT 0.96 (19 hr): 1.01%
- HPLC peak RT 13.84, RRT 0.91 (19 hr): 0.04%
- HPLC peak RT 20.32, RRT 1.34 (19 hr): 0.12%
- HPLC peak RT 20.51, RRT 1.35 (19 hr): 0.04%
- HPLC peak RT 21.68, RRT 1.43 (19 hr): 0.14%
- HPLC peak RT 22.88, RRT 1.51 (19 hr): 0.09%
- HPLC peak RT 27.15, RRT 1.79 (19 hr): 0.02%
- HPLC peak RT 27.21, RRT 1.80 (19 hr): 0.04%
- HPLC peak RT 27.45, RRT 1.81 (19 hr): 0.22%
- HPLC peak RT 27.88, RRT 1.84 (19 hr): 0.04%
- HPLC peak RT 4.37, RRT 0.28 (19 hr): 5.74
- Z-form, RT 15.13, RRT 1.00 (19 hr): 91.92
- E-form, RT 14.58, RRT 0.96 (27 hr): 1.53%
- HPLC peak RT 13.84, RRT 0.91 (27 hr): 0.04%
- HPLC peak RT 20.32, RRT 1.34 (27 hr): 0.09%
- HPLC peak RT 20.51, RRT 1.35 (27 hr): 0.1%
- HPLC peak RT 21.68, RRT 1.43 (27 hr): 0.15%
- HPLC peak RT 22.88, RRT 1.51 (27 hr): 0.06%
- HPLC peak RT 27.15, RRT 1.79 (27 hr): 0.03%
- HPLC peak RT 27.21, RRT 1.80 (27 hr): 0.04%
- HPLC peak RT 27.45, RRT 1.81 (27 hr): 0.22%
- HPLC peak RT 27.88, RRT 1.84 (27 hr): 0.04%
- HPLC peak RT 4.37, RRT 0.28 (27 hr): 7.93
- Z-form, RT 15.13, RRT 1.00 (27 hr): 89.05
- E-form, RT 14.58, RRT 0.96 (43 hr): 5.33%
- HPLC peak RT 13.84, RRT 0.91 (43 hr): 0.04%
- HPLC peak RT 20.32, RRT 1.34 (43 hr): 0.13%
- HPLC peak RT 20.51, RRT 1.35 (43 hr): 0.05%
- HPLC peak RT 21.68, RRT 1.43 (43 hr): 0.13%
- HPLC peak RT 22.88, RRT 1.51 (43 hr): 0.05%
- HPLC peak RT 27.15, RRT 1.79 (43 hr): 0.04%
- HPLC peak RT 27.21, RRT 1.80 (43 hr): 0.05%
- HPLC peak RT 27.45, RRT 1.81 (43 hr): 0.15%
- HPLC peak RT 27.88, RRT 1.84 (43 hr): 0.04%
- HPLC peak RT 4.37, RRT 0.28 (43 hr): 12.64
- Z-form, RT 15.13, RRT 1.00 (43 hr): 80.36
- E-form, RT 14.58, RRT 0.96 (T0): 0.3%
- HPLC peak RT 13.84, RRT 0.91 (T0): 0.04%
- HPLC peak RT 20.32, RRT 1.34 (T0): 0.04%
- HPLC peak RT 20.51, RRT 1.35 (T0): 0.12%
- HPLC peak RT 21.68, RRT 1.43 (T0): 0.15%
- HPLC peak RT 22.88, RRT 1.51 (T0): 0.03%
- HPLC peak RT 27.15, RRT 1.79 (T0): 0.03%
- HPLC peak RT 27.21, RRT 1.80 (T0): 0.05%
- HPLC peak RT 27.45, RRT 1.81 (T0): 0.17%
- HPLC peak RT 27.88, RRT 1.84 (T0): 0.04%
- HPLC peak RT 4.37, RRT 0.28 (T0): 0.05
- Z-form, RT 15.13, RRT 1.00 (T0): 98.67
- E-form, RT 15.40, RRT 0.95 (4 hr): 0.78%
- HPLC peak RT 3.14, RRT 0.19 (4 hr): 0.15%
- HPLC peak RT 4.25, RRT 0.26 (4 hr): 0.57
- HPLC peak RT 14.68, RRT 0.90 (4 hr): 0.04%
- HPLC peak RT 17.69, RRT 1.09 (4 hr): 0.08%
- HPLC peak RT 20.47, RRT 1.26 (4 hr): 0.04
- HPLC peak RT 20.80, RRT 1.28 (4 hr): 0.15%
- HPLC peak RT 21.56, RRT 1.33 (4 hr): 0.08%
- HPLC peak RT 21.83, RRT 1.34 (4 hr): 0.1%
- HPLC peak RT 22.68, RRT 1.39 (4 hr): 0.1%
- HPLC peak RT 22.76, RRT 1.40 (4 hr): 0.08%
- Z-form, RT 16.25, RRT 1.00 (4 hr): 97.28
- E-form, RT 15.40, RRT 0.95 (20 hr): 1.03%
- HPLC peak RT 3.14, RRT 0.19 (20 hr): 0.11%
- HPLC peak RT 4.25, RRT 0.26 (20 hr): 2.00
- HPLC peak RT 14.68, RRT 0.90 (20 hr): 0.04%
- HPLC peak RT 17.69, RRT 1.09 (20 hr): 0.08%
- HPLC peak RT 20.47, RRT 1.26 (20 hr): 0.05
- HPLC peak RT 20.80, RRT 1.28 (20 hr): 0.21%
- HPLC peak RT 21.56, RRT 1.33 (20 hr): 0.08%
- HPLC peak RT 21.83, RRT 1.34 (20 hr): 0.08%
- HPLC peak RT 22.68, RRT 1.39 (20 hr): 0.09%
- HPLC peak RT 22.76, RRT 1.40 (20 hr): 0.01%
- Z-form, RT 16.25, RRT 1.00 (20 hr): 95.35
- E-form, RT 15.40, RRT 0.95 (24 hr): 1.14%
- HPLC peak RT 3.14, RRT 0.19 (24 hr): 0.13%
- HPLC peak RT 4.25, RRT 0.26 (24 hr): 2.81
- HPLC peak RT 14.68, RRT 0.90 (24 hr): 0.04%
- HPLC peak RT 17.69, RRT 1.09 (24 hr): 0.09%
- HPLC peak RT 20.47, RRT 1.26 (24 hr): 0.05
- HPLC peak RT 20.80, RRT 1.28 (24 hr): 0.17%
- HPLC peak RT 21.56, RRT 1.33 (24 hr): 0.09%
- HPLC peak RT 21.83, RRT 1.34 (24 hr): 0.01%
- HPLC peak RT 22.68, RRT 1.39 (24 hr): 0.07%
- HPLC peak RT 22.76, RRT 1.40 (24 hr): 0.02%
- Z-form, RT 16.25, RRT 1.00 (24 hr): 94.73
- E-form, RT 15.40, RRT 0.95 (28 hr): 1.26%
- HPLC peak RT 3.14, RRT 0.19 (28 hr): 0.11%
- HPLC peak RT 4.25, RRT 0.26 (28 hr): 3.14
- HPLC peak RT 14.68, RRT 0.90 (28 hr): 0.04%
- HPLC peak RT 17.69, RRT 1.09 (28 hr): 0.1%
- HPLC peak RT 20.47, RRT 1.26 (28 hr): 0.06
- HPLC peak RT 20.80, RRT 1.28 (28 hr): 0.19%
- HPLC peak RT 21.56, RRT 1.33 (28 hr): 0.09%
- HPLC peak RT 21.83, RRT 1.34 (28 hr): 0.01%
- HPLC peak RT 22.68, RRT 1.39 (28 hr): 0.09%
- HPLC peak RT 22.76, RRT 1.40 (28 hr): 0.02%
- Z-form, RT 16.25, RRT 1.00 (28 hr): 93.99
- E-form, RT 15.40, RRT 0.95 (T0): 0.65%
- HPLC peak RT 3.14, RRT 0.19 (T0): 0.16%
- HPLC peak RT 4.25, RRT 0.26 (T0): 0.12
- HPLC peak RT 14.68, RRT 0.90 (T0): 0.04%
- HPLC peak RT 17.69, RRT 1.09 (T0): 0.08%
- HPLC peak RT 20.47, RRT 1.26 (T0): 0.03
- HPLC peak RT 20.80, RRT 1.28 (T0): 0.07%
- HPLC peak RT 21.56, RRT 1.33 (T0): 0.08%
- HPLC peak RT 21.83, RRT 1.34 (T0): 0.07%
- HPLC peak RT 22.68, RRT 1.39 (T0): 0.03%
- HPLC peak RT 22.76, RRT 1.40 (T0): 0.06%
- Z-form, RT 16.25, RRT 1.00 (T0): 98.28
- Stability of (Z)-endoxifen produced from methods using acetone recrystallization only (summary of TABLES 2 and 3): unstable
Compound: CC/C(=C(\c1ccc(O)cc1)c1ccc(OCCNC)cc1)c1ccccc1 [(Z)-endoxifen, (Z)-4-(1-(4-(2-(methylamino)ethoxy)phenyl)-2-phenylbut-1-enyl)phenol]
